Our source for the K1 and K2 values is ChEMBL document CHEMBL1127296, “Interaction of calcium channel antagonists with calcium: structural studies on nicardipine and its Ca2+ complex” (J Med Chem, 1994).

Experiment [1] can be described thus: Dissociation constant to estimate the calcium binding to the compound at the ratio of 1:1.
Experiment [2] in a line: Dissociation constant to estimate the calcium binding to the compound at the ratio of 2:1.

Turning to `COC(=O)C1=C(C)NC(C)=C(C(=O)OCCN(C)Cc2ccccc2)C1c1cccc([N+](=O)[O-])c1` (configuration not stated), the K1 in experiment [1] was 100 µM. Further, in experiment [2], the K2 is 26 µM.
